Read-outs that look alike come from different tables or passages of the source.
Assays:
pKa of Compound 1 = type: physicochemical
[1] = dog, in vivo, po, 10 mg/kg
Description: (§1) The study was designed to compare the PK profiles of the following four forms of Compound 1 administered as single oral capsules in fasted state. […] There was a washout period of 4 days between dosing. The blood samples were collected from each animal at predetermined times on the study Days 1, 4, 8 and 11. The plasma was analyzed for Compound 1 by a validated HPLC-MS/MS assay.
(§2) Descriptive PK parameters were determined by standard model independent methods (Gibaldi and Perrier, 1982) based on the individual plasma concentration-time data. Plasma concentrations were rounded to 3 significant figures. Plasma samples with concentrations below the quantifiable assay limit (BQL<2.00 ng/mL) were assigned values of zero for mean calculations. For PK calculations, BQL was set to zero from the pre-dose time up to the time of the first quantifiable concentration and thereafter was set as missing. Nominal time points were used for all calculations. • Cmax is the observed maximum plasma concentration after dosing. • Tmax is the time to reach Cmax. • T1/2 is apparent half-life calculated by ln(2)/λ where λ is the rate constant fix the log-linear portion of the terminal phase. A minimum of three values in the post-distribution phase of the plasma concentration-time curve is required for calculation of X. • AUC(0-T) is the area under the plasma concentration-time curve from time zero to the time of the last measurable plasma concentration determined using the linear trapezoidal rule. • AUC(0-inf) is the area under the plasma concentration-time curve from time zero to infinity. It is calculated by summing AUC(0-T) and the extrapolated area from the T to infinity.
(§3) PK analyses were performed by noncompartmental analysis using model 200 in WinNonlin Professional 6.1 (Pharsight Corp., Mountain View, Calif.).

in vivo = conditions: male, beagle, dog, po, 10 mg/kg
Description: as §1, §2, §3

[2] = Gravimetric vapour sorption (GVS); type: physicochemical
Description: Sorption isotherms were obtained using a Hiden IGASorp moisture sorption analyzer, controlled by CFRSorp software. The sample temperature was maintained at 25° C. by a Huber re-circulating water bath. The humidity was controlled by mixing streams of dry and wet nitrogen, with a total flow rate of 250 mL·min^−1. The relative humidity was measured by a calibrated Vaisala RH probe (dynamic range of 0-95% RH), located near the sample. The weight change, (mass relaxation) of the sample as a function of % RH was constantly monitored by the microbalance (accuracy ±0.001 mg).
Typically 10-20 mg of sample was placed in a tared mesh stainless steel basket under ambient conditions. The sample was loaded and unloaded at 40% RH and 25° C. (typical room conditions).
A moisture sorption isotherm was performed as outlined below (2 scans giving 1 complete cycle). The standard isotherm was performed at 25° C. at 10% RH intervals over a 0-90% RH range.
The software uses a least squares minimization procedure together with a model of the mass relaxation, to predict an asymptotic value. The measured mass relaxation value must be within 5% of that predicted by the software, before the next RH value is selected. The minimum equilibration time was set to 1 hour and the maximum to 4 hours.
The sample was recovered after completion of the isotherm and re-analyzed by XRPD.

[3] = Storage of amine salts at elevated humidity (deliquescence); type: physicochemical
Description: The tromethamine salt deliquesced at 25° C./94% RH. As a result, neither of these amine salts were suitable for pharmaceutical development.

SMILES: COc1ccc2c(c1OCc1ccccc1)C[C@@H](C(=O)O)N(C(=O)C(c1ccccc1)c1ccccc1)C2 [Compound 1, (S)-2-(diphenylacetyl)-1,2,3,4-tetrahydro-6-methoxy-5-(phenylmethoxy)-3-isoquinoline carboxylic acid]
- pKa (pKa of Compound 1): ~3.86
- Plasma concentration of Compound 1, 0.25 h [1]: BQL
- Plasma concentration of Compound 1, 0.5 h [1]: BQL
- Plasma concentration of Compound 1, 0.75 h [1]: BQL
- Plasma concentration of Compound 1, 12 h [1]: BQL
- Plasma concentration of Compound 1, 24 h [1]: BQL
- Plasma concentration of Compound 1, Predose [1]: BQL
- Plasma concentration of Compound 1, Predose ([1]; male, beagle): 0.00 ng/mL
- Plasma concentration of Compound 1, 24 h ([1]; male, beagle, 24 h): 0.00 ng/mL
- AUC(0-inf) (in vivo; Mean AUC(0-inf)): 680 ± 412 ng·h/mL
- half-life (in vivo; Mean harmonic T1/2): 2.11 ± 0.115 h
- half-life (in vivo; T1/2): 2.18 h
- Tmax (in vivo; Tmax): 1 h
- Cmax (in vivo; mean Cmax): 294 ± 238 ng/mL
- Tmax (in vivo; median Tmax): 2 h

SMILES: COc1ccc2c(c1OCc1ccccc1)C[C@@H](C(=O)[O-])N(C(=O)C(c1ccccc1)c1ccccc1)C2.[Na+] [material from acetonitrile (MeCN)]
- GVS weight gained by 40% RH ([2]; from 0% RH to 40% RH): 6%
- GVS weight change when taken up to 90% RH ([2]; from 40% RH to 90% RH, 25° C.): about 17%
- GVS total weight drop ([2]; from 90% RH to 0% RH): 19%
- GVS weight at 0% RH ([2]; taken down to 0% RH, 25° C.): −2%

SMILES: COc1ccc2c(c1OCc1ccccc1)C[C@@H](C(=O)O)N(C(=O)C(c1ccccc1)c1ccccc1)C2.NC(CO)(CO)CO [tromethamine salt]
- behaviour on storage at 25° C./94% RH [3]: deliquesced
